Experimental data taken from PubChem BioAssay (NCI).
“And” between values parts separate entries of the source, which are not always exact repeats. Equal values may be shown once.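 Five concentrations, 48 hours, 96-well plates. At the GI50, growth is halved. TGI: total growth inhibition.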

Key:
Test in all cases: NCI-60 cell line screen, 48 h
HCT-116 colon = test system: HCT-116 colon
OVCAR-5 ovarian = test system: OVCAR-5 ovarian
A549 NSCLC = test system: A549 NSCLC
IGROV1 ovarian = test system: IGROV1 ovarian
HOP-92 NSCLC = test system: HOP-92 NSCLC
SK-MEL-28 melanoma = test system: SK-MEL-28 melanoma
SK-OV-3 ovarian = test system: SK-OV-3 ovarian
SF-539 CNS = test system: SF-539 CNS
PC-3 prostate = test system: PC-3 prostate
NCI/ADR-RES ovarian = test system: NCI/ADR-RES ovarian

Row | Compound | TGI (HCT-116 colon) | TGI (OVCAR-5 ovarian) | TGI (A549 NSCLC) | TGI (IGROV1 ovarian) | TGI (HOP-92 NSCLC) | TGI (SK-MEL-28 melanoma) | TGI (SK-OV-3 ovarian) | TGI (SF-539 CNS) | GI50 (OVCAR-5 ovarian) | GI50 (IGROV1 ovarian) | GI50 (HOP-92 NSCLC) | GI50 (SK-MEL-28 melanoma) | TGI (PC-3 prostate) | GI50 (SK-OV-3 ovarian) | GI50 (HCT-116 colon) | GI50 (SF-539 CNS) | GI50 (A549 NSCLC) | GI50 (NCI/ADR-RES ovarian) | TGI (NCI/ADR-RES ovarian)
1 | CCCCCCCCCCCCCCCCCC(=O)OCC(CN(C)CCN(C)C)OC(=O)CCCCCCCCCCCCCCCCC (stereo not drawn) | > 100 µM | > 100 µM | > 100 µM | > 100 µM | > 100 µM | > 100 µM | > 100 µM | – | – | – | – | – | – | – | – | – | – | – | –
2 | COC(=O)C1CC(C(=O)OC)c2nc3cc(C)ccc3nc21 (stereo not drawn) | – | > 100 µM | > 100 µM | > 100 µM | > 100 µM | > 100 µM | > 100 µM | > 100 µM | – | – | – | – | – | – | – | – | – | – | –
3 | COC(=O)C1=C(C)N(NC(N)=O)C2(N)N(NC(N)=O)C(C)=C(C(=O)OC)C12C(=O)OC (stereo not drawn) | > 100 µM | > 100 µM | > 100 µM | > 100 µM | > 100 µM | > 100 µM | > 100 µM | > 100 µM | – | – | – | – | – | – | – | – | – | – | –
4 | COc1c(O)c2c(c3cc(C(=O)N4CCc5c4c(O)c(OC)c4[nH]c(C(=O)N6CC7CC78C6=CC(=O)c6[nH]cc(C)c68)cc54)[nH]c13)CCN2C(N)=O (stereo not drawn) | – | 0.0519 µg/mL | – | > 100 µM | 28.8 nM and 0.0401 µg/mL | – | – | 12.1 nM and 897 nM and 0.007 µg/mL | 0.0152 µg/mL | 10.8 µM | 0.0081 µg/mL | 0.354 µM | 10 µM | – | – | – | – | – | –
5 | O=C1c2cccc3cc([N+](=O)[O-])cc(c23)C(=O)N1CCNCCNCCNCCN1C(=O)c2cccc3cc([N+](=O)[O-])cc(c23)C1=O | 1.08 µM | 0.326 µM | 0.287 µM and 0.196 µM | 0.205 µM | 0.112 µM | 0.338 µM and 0.279 µM | 0.341 µM and 0.598 µM | 0.304 µM and 0.357 µM | – | – | – | – | – | 0.0273 µM | – | – | – | – | –
6 | CC(C)C(=O)/C=C/c1ccccc1 | > 100 µM | > 100 µM | > 100 µM | > 100 µM | > 100 µM | > 100 µM | > 100 µM | > 100 µM | – | – | – | – | – | – | – | – | – | – | –
7 | COC(=O)C(CCS(=O)(=O)CC(=O)C(=O)Nc1cccc(C(C)=O)c1)C(=O)OC | > 100 µM | > 100 µM | > 100 µM | > 100 µM | > 100 µM | > 100 µM | > 100 µM | > 100 µM | – | – | – | – | – | – | – | – | – | – | –
8 | C/C(O)=C(\N=O)C(=O)NCCc1ccccc1 | > 70.1 µM | > 100 µM | > 100 µM | > 100 µM | > 100 µM | > 100 µM | > 100 µM | > 100 µM | – | – | – | – | – | – | – | – | – | – | –
9 | O=S(=O)([O-])c1cccc2cccc(N=Cc3ccccc3[O-])c12.O=S(=O)([O-])c1cccc2cccc(N=Cc3ccccc3[O-])c12.[O]=[U]=[O] | > 100 µM | > 100 µM | > 100 µM | > 100 µM | 89.6 µM | > 100 µM | > 100 µM | > 100 µM | > 100 µM | 70.6 µM | 30.1 µM | > 100 µM | – | > 100 µM | 22.3 µM | 36.3 µM | 44.4 µM | – | –
10 | Cc1cccc(C(C)(C)C)c1NC(=O)C(=O)C(C(=O)/C=C\c1ccccc1)C1OC(=O)c2ccccc21 (stereo not drawn) | > 100 µM | > 100 µM | > 100 µM | > 100 µM | > 100 µM | > 100 µM | > 100 µM | > 100 µM | – | – | – | – | – | – | – | – | – | – | –
11 | CC(O)/C=C/C(CCC(C)CO)C(C)C (stereo not drawn) | > 100 µM | > 100 µM | > 100 µM | > 100 µM | > 100 µM | > 100 µM | > 100 µM | > 100 µM | – | – | – | – | – | – | – | – | – | – | –
12 | CCCCCCCCCC(=O)CC(=O)c1ccc(O)cc1O | 66.6 µM | 94 µM | > 100 µM | > 100 µM | 79.4 µM | > 100 µM | > 100 µM | 96.5 µM | – | – | – | – | – | – | – | – | – | – | –
13 | O=C1C=C[C@@]23CC1C(O)C[C@H]2C=Cc1ccccc13 (stereo partly drawn) | > 100 µM | > 100 µM | > 100 µM | > 100 µM | > 100 µM | – | > 100 µM | > 100 µM | – | – | – | – | – | – | – | – | – | – | –
14 | CCOC(=O)CC(=O)Sc1ccccc1 | 26.8 µM | > 100 µM | 60.6 µM | 26 µM | 89.5 µM | 35 µM | 49.3 µM | 28.6 µM | – | – | – | – | – | – | – | – | – | – | –
15 | N#CC(C(=O)/C(=N/N)C(C#N)c1ccc(Cl)cc1)c1ccc(Cl)cc1 (stereo not drawn) | > 100 µM | > 100 µM | > 100 µM | > 100 µM | > 100 µM | – | – | > 100 µM | – | – | – | – | – | – | – | – | – | – | –
16 | C1CC[N-]CC1.C1CC[N-]CC1.C1CC[N-]CC1.C1CC[N-]CC1.[Cl][Rh][Cl] | > 100 µM | 49.8 µM | > 100 µM | 76.8 µM | 22.1 µM | 21.6 µM | > 100 µM | > 100 µM | 6.83 µM | 7.85 µM | 4.39 µM | 3.36 µM | – | 14.8 µM | 4.75 µM | 5.15 µM | 3.12 µM | > 100 µM | > 100 µM
